The results in this text go back to ChEMBL document CHEMBL5512617, “Tackling Influenza A virus by M2 ion channel blockers: Latest progress and limitations” (Eur J Med Chem, 2024).

≈ marks a conversion by molar mass, not a printed value.

T1 sequence (P06821 whole entry): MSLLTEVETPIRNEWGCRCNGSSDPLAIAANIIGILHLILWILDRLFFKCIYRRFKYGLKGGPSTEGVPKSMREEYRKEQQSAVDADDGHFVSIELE

The first series concerns the target T1, Matrix protein 2 (Influenza A virus, UniProt P06821). In kind it is cell-based, A/Udorn/72, Oocyte.
Details: not given
The molecule `NC1CCC2(CCCCCC2)CC1` returned an IC50 of 13 µM.
In turn, `NC1CCC2(CCCC2)CC1` [listing 1 of 2 here] showed an IC50 of 3.3 µM.
`C1CCC2(CC1)CCNCC2` gave an IC50 of 0.9 µM.
Still for that read-out and setting: in the case of `NCC1CCC2(CCCCC2)CC1` it was 8.9 µM.
On to `NC1CCC2(CCCCC2)CC1` [listing 1 of 2 here], for which the IC50 worked out at 12.6 µM.
Turning to `NC1CCCC2(CCCCC2)CC1` (centres undefined), half-maximal inhibition (IC50) required 13.2 µM.
For `CC(N)C1CCC2(CCCCC2)CC1` (centres undefined), the midpoint of inhibition, the IC50, lay at 16 µM.
Turning to `NC1CCCC2(CCCCCC2)CC1` (centres undefined), half-maximal inhibition (IC50) required 8.7 µM.

For another series, the system named is Influenza A virus. The series is described as follows: Antiviral activity against influenza A virus A/hanfang/359/95 (H3N2).
Details: not given
In kind it is functional, organism-based.
Consider `O=C(CCC[C@@H]1[C@H]2CCCN3CCC[C@@H](CN1S(=O)(=O)c1ccccc1)[C@@H]23)OCC12CC3CC(CC(C3)C1)C2`, for which the IC50 was 16.3 µM.
For `O=C(CCC[C@@H]1[C@H]2CCCN3CCC[C@@H](CN1S(=O)(=O)c1ccc(C(F)(F)F)cc1)[C@@H]23)OCC12CC3CC(CC(O)(C3)C1)C2`, the IC50 is 9.53 µM.
Take `Cc1ccc(S(=O)(=O)N2C[C@@H]3CCCN4CCC[C@@H]([C@H]34)[C@H]2CCCC(=O)OCC23CC4CC(CC(C4)C2)C3)cc1`: the IC50 is 16.2 µM.
`O=C(CCC[C@@H]1[C@H]2CCCN3CCC[C@@H](CN1S(=O)(=O)c1ccc(C(F)(F)F)cc1)[C@@H]23)OCC12CC3CC(CC(C3)C1)C2` showed an IC50 of 21.1 µM.
On to `O=C(CCC[C@@H]1[C@H]2CCCN3CCC[C@@H](CN1S(=O)(=O)c1cccc(C(F)(F)F)c1)[C@@H]23)OCC12CC3CC(CC(O)(C3)C1)C2`, for which the IC50 came to 11.1 µM.
Molecule `O=C(CCC[C@@H]1[C@H]2CCCN3CCC[C@@H](CN1S(=O)(=O)c1cccc(C(F)(F)F)c1)[C@@H]23)OCC12CC3CC(CC(C3)C1)C2` yielded an IC50 of 5.14 µM.
In turn, `O=C(CCC[C@@H]1[C@H]2CCCN3CCC[C@@H](CN1S(=O)(=O)c1ccc(C(F)(F)F)cc1)[C@@H]23)OCCC12CC3CC(CC(C3)C1)C2` returned an IC50 of 16.9 µM.

Test system in a further series: not listed separately
The series is described as follows: Cytotoxicity against MDCK cells. The series is classed as toxicity, cell-based, Canis lupus familiaris. Conditions: dog.
Turning to `CC(NC(=O)c1csc(CN)n1)C12CC3CC(CC(C3)C1)C2` (centres undefined), the CC50 was found to be 50 µg/mL.
Molecule `O=C(CCC[C@@H]1[C@H]2CCCN3CCC[C@@H](CN1S(=O)(=O)c1cccc(C(F)(F)F)c1)[C@@H]23)OCC12CC3CC(CC(C3)C1)C2` yielded a CC50 of 47.8 µM.

Test system in the next series: not listed separately
The series is described as follows: Cytotoxicity against MDCK cells incubated for 24 hrs by neutral red uptake assay. As to conditions: dog. In kind it is toxicity, cell-based, Canis lupus familiaris.
`NC1CCC2(CC1)C1CC3CC(C1)CC2C3` (centres undefined) displayed a CC50 at 24 h of 27.6 µM.

Test system in another series: not listed separately
The experiment in a line: Selectivity index, ratio of CC50 for MDCK cells to IC50 for influenza A virus A/hanfang/359/95 (H3N2). The series is classed as toxicity. Conditions: dog, read-out: Ratio CC50/IC50.
On to `O=C(CCC[C@@H]1[C@H]2CCCN3CCC[C@@H](CN1S(=O)(=O)c1cccc(C(F)(F)F)c1)[C@@H]23)OCC12CC3CC(CC(C3)C1)C2`, for which the selectivity ratio turned out to be 9.31.

A further series relates to Influenza A virus. The series is classed as functional, organism-based. Conditions: H1N1 (A/California/7/2009), MDCK, 72 h.
On to `CC[C@@H](C(=O)[C@@H](C)[C@@H](O)[C@H](C)[C@@H]1O[C@@H]([C@@H](CC)C(=O)O)CC[C@@H]1C)[C@H]1O[C@]2(C=C[C@@H](O)[C@]3(CC[C@@](C)([C@H]4CC[C@](O)(CC)[C@H](C)O4)O3)O2)[C@H](C)C[C@@H]1C` [SALINOMYCIN], for which the response was half-maximal at 1.9 µM (EC50).

Test system in another series: not listed separately
The experiment in a line: Cytotoxicity against MDCK cells measured after 3 days by MTT assay. The series is classed as toxicity, cell-based, Canis lupus familiaris. As to conditions: dog, time 3 day.
In turn, `CC[C@@H](C(=O)[C@@H](C)[C@@H](O)[C@H](C)[C@@H]1O[C@@H]([C@@H](CC)C(=O)O)CC[C@@H]1C)[C@H]1O[C@]2(C=C[C@@H](O)[C@]3(CC[C@@](C)([C@H]4CC[C@](O)(CC)[C@H](C)O4)O3)O2)[C@H](C)C[C@@H]1C` [SALINOMYCIN] registered a CC50 at 72 h of 35.6 µM.

A further series concerns Influenza A virus. The series is classed as functional, organism-based. As to conditions: A/WSN/33 (H1N1), MDCK, 48 h.
Molecule `c1nc(N2CCCCCC2)ncc1CNC12CC3CC(CC(C3)C1)C2` displayed an EC50 of 0.7 µM.
For the molecule `OC12CC3CC(C1)CC(NCc1ccc(N4CCCCCCC4)cn1)(C3)C2`, the response was half-maximal at 7.9 µM (EC50).
`OC12CC3CC(C1)CC(NCc1cnc(N4CCCCC4)nc1)(C3)C2` registered an EC50 of 4.3 µM.
As to `c1nc(N2CCCCC2)ncc1CNC12CC3CC(CC(C3)C1)C2`, it took 1.5 µM to reach a half-maximal effect (EC50).
On the same count and under the same terms, in the case of `c1nc(N2CCCCCC2)cnc1CNC12CC3CC(CC(C3)C1)C2` it was 1.9 µM; in that of `OC12CC3CC(C1)CC(NCc1ccc(N4CCCCCC4)cn1)(C3)C2`, 2.7 µM.

Test system in a further series: not listed separately
The experiment in a line: Cytotoxicity against MDCK cells incubated for 72 hrs by CCK-8 assay. In kind it is toxicity, cell-based, Canis lupus familiaris. Conditions: dog.
With `CC(N)[C@H]1C[C@H]2CC[C@]1(C)C2(C)C` (some centres undefined), the CC50 at 72 h is greater than 300 µM.
With `CC1(C)[C@@H]2CC[C@@]1(C)[C@@H](CN)C2`, the CC50 at 72 h was greater than 300 µM.
Turning to `C[C@H]1[C@H](N)C[C@@H]2C[C@H]1C2(C)C`, the CC50 at 72 h was greater than 300 µM.

The target in a further series is T1, Matrix protein 2. In kind it is cell-based, Oocyte.
Details: not given
This is another data set of the same source.
On to `NC1CC[Si]2(CCCCC2)CC1`, for which half-maximal inhibition (IC50) was put at 13.7 µM.
With `C[Si]1(C)CCC(N)CC1`, the IC50 worked out at 2.6 µM.
As to `C[Si]1(C)CCC(CN)CC1`, the IC50 stood at 5.7 µM.
For `NC1CC[Si]2(CCCC2)CC1`, the IC50 came out at 7.8 µM.
`CC1(C)CCCNCC1` registered an IC50 of 26.1 µM.
`NC1CCC2(CCCC2)CC1` [listing 2 of 2 here] registered an IC50 of 3.3 µM.
`NC1CCC2(CCCCC2)CC1` [listing 2 of 2 here] registered an IC50 of 12.6 µM.
On the same count and under the same terms, to `CC1(C)CCC(N)CC1` belongs 2.4 µM.
`C[Si]1(C)CCCNCC1`: the IC50 was determined as 19.4 µM.

In the next series the test system is Influenza A virus. The series is classed as functional, organism-based. Conditions: A/WSN/33 (H1N1), MDCK, 48 h. The source holds these as a separate data set.
For the molecule `Brc1cc(CNC23CC4CC(CC(C4)C2)C3)cs1`, the 50% effective concentration (EC50) was found to be 2.2 µM.
Same read-out and setting: to `c1c(CNC23CC4CC(CC(C4)C2)C3)noc1C1CC1` belongs 0.49 µM.

The next series deals with Influenza A virus. The series is classed as functional, organism-based. Conditions: H5N1 (A/chicken/Hubei/327/2004), MDCK.
Turning to `[C-]#[N+]C(C)C12CC3CC(CC(C3)C1)C2` (centres undefined), the EC50 was found to be 0.24 µM.
On the same count and under the same terms, to `[C-]#[N+]C1C2CC3CC(C2)CC1C3` (centres undefined) belongs 9.8 µM.
In turn, `[C-]#[N+]C(C)(C)CC(C)(C)C` returned an EC50 of 3.88 µM.
The same measure, in the same setting: to `[C-]#[N+][C@@H]1C[C@@H]2C[C@H]([C@H]1C)C2(C)C` belongs 7.36 µM; to `[C-]#[N+]c1c(C)cc(C(C)(C)C)cc1C`, 0.24 µM.
On to `[C-]#[N+]C12CC3CC(CC(C3)C1)C2`, for which a half-maximal response (EC50) required 0.487 µM.

A further series concerns Influenza A virus. The series is classed as functional, organism-based. As to conditions: H3N2 (A/Perth/10/2007), MDCK, 72 h.
For `CC[C@@H](C(=O)[C@@H](C)[C@@H](O)[C@H](C)[C@@H]1O[C@@H]([C@@H](CC)C(=O)O)CC[C@@H]1C)[C@H]1O[C@]2(C=C[C@@H](O)[C@]3(CC[C@@](C)([C@H]4CC[C@](O)(CC)[C@H](C)O4)O3)O2)[C@H](C)C[C@@H]1C` [SALINOMYCIN], the EC50 was 2.6 µM.

The next series has as its system Influenza A virus. In kind it is functional, organism-based. As to conditions: H1N1 (A/Hongkong/68), MDCK, 24 h.
The molecule `CC(NC(=O)c1csc(CN)n1)C12CC3CC(CC(C3)C1)C2` (centres undefined) displayed a half-maximal inhibitory concentration (IC50) of 0.11 µg/mL (≈ 0.344 µM).
